Experiments:
Type in all cases: in vitro ADME
[1] = Permeation across PermeaPad barrier, reversed Franz cell setup, after NaCl pretreatment; conditions: for Increase of apparent permeability across the PermeaPad® barrier upon hypo-osmotic pretreatment: hypo-osmotic pretreatment (soaking in hypotonic medium); for Papp: permeation in 300 mOsm PBS pH 6.5, 37 °C, mean ± SD, read-out: Permeability across PermeaPad®; for Increase of permeability in PBS across PermeaPad®: pretreated with NaCl solutions of 50, 150, or 900 mOsm/kg compared to 300 mOsm/kg; for Change of permeability across PermeaPad® after hyper-osmotic pretreatment (in words): pretreatment with 900 mOsm/kg NaCl solution versus 300 mOsm, p < 0.05; for Papp, mean: supplement raw data, mean of replicates A-C
Experimental: (§1) During these studies, phosphate-buffered saline (PBS) was used as the acceptor medium and for the preparation of donor media for permeation experiments. The liposomes were allowed to form within the barrier by soaking the dry sandwich barrier (PermeaPad) in hypo-, iso-, or hyper-osmotic media and compared to the PBS by using NaCl solutions of different osmolalities. PBS was prepared by dissolving 35 mM sodium phosphate dibasic dihydrate and 75 mM sodium phosphate monobasic monohydrate in water. Then, the pH was adjusted to 6.5 by adding 0.1 M HCl or 0.1 M NaOH. Finally, the osmolality was measured on a semi-micro osmometer K-7400 from KNAUER Wissenschaftliche Geräte GmbH (Berlin, Germany), and NaCl was added to obtain an osmolality of 300 mOsm. Solutions of NaCl were prepared by dissolving NaCl in purified water to obtain osmolalities of 50, 150, 250, 300, 350, 450 and 900 mOsm.
(§2) The acyclovir solution was prepared by dissolving 1 mg/mL acyclovir in PBS. […] The stock of calcein was prepared by dissolving 2.8 g calcein in 30 mL water before adjusting the pH to 6.5 with 4 M NaOH (~20 mL), and the osmolality of the stock was adjusted to 300 mOsm with NaCl. […] The saturated celecoxib suspensions were prepared by suspending 1 mg/mL of celecoxib in PBS. The suspension was then sonicated for 10 min and left in the shaking water bath at 50 rpm and 37 °C for 40 h before starting the permeation experiments.
(§3) For the permeation experiments, we used the reversed Franz cell setup from Permegear (Hellertown, PA, USA) with the donor in the bottom chamber (8 mL) and the acceptor in the top chamber (2 mL). The two compartments were either separated by PermeaPad® or a sandwich consisting of two pieces of the support sheet representing the support layer of PermeaPad® (with no lipids). The barriers were kindly donated by InnoMe GmbH (Espelkamp, Germany). A cylindrical stir bar (2 mm diameter × 8 mm length) was spinning at 500 rpm at the bottom of the donor compartment. The temperature of the Franz cells was kept constant at 37 °C by a circulating water system.
(§4) Prior to the permeation experiments, the barrier was exposed to NaCl solutions ranging from 50 to 900 mOsm for 30 min by simply adding 2 mL of the NaCl solution to the top compartment. The NaCl solutions were removed from the top compartment right before initiating the permeation experiments.
(§5) For the permeation experiments, the system was kept assembled after the NaCl pretreatment, and the bottom compartment was filled with 8 mL of donor solution/suspension, followed by the addition of 2 mL PBS to the top compartment. […] All samples were replaced by the same volume of PBS to keep the acceptor volume constant and to maintain sink conditions. Before and after experiments, donor samples were withdrawn to keep track of the mass balance (see the Supplementary Materials).
(§6) The column temperature was 40 °C during measurement. […] All quantification was with a freshly prepared calibration curve in the relevant range.
(§7) The flux was determined by plotting the cumulative amount of a drug compound permeation (dQ) normalized to the permeation area (A) (1 cm^2) against time (dt), with the flux (J) equal to the slope. (1) J=dQ/A·dt
(§8) We assumed that the change in the donor concentration over the experiments was negligible. The apparent permeability (Papp) was equal to the flux normalized to the starting donor concentration (C0). (2) Papp=J/C0

[2] = Permeation across lipid-free support sheets (support layer of PermeaPad), reversed Franz cell setup; conditions: for Papp: 300 mOsm PBS pH 6.5, 37 °C, mean ± SD, read-out: Permeability across support layer; for Papp, mean: supplement raw data, Support sheet, 30 min pretreatment, mean of replicates A-C
Experimental: as §1, §2, §3, §4, §5, §6, §7, §8

[3] = Permeability across the lipid layer of PermeaPad calculated from Papp and Psup (Equation 3); conditions: for Permeation across lipid layer, fold higher with 50 mOsm/kg pretreatment: 50 mOsm/kg versus 300 mOsm/kg NaCl pretreatment; for Papp: not told, calculated 1/Papp=1/Plip+1/Psup
Excerpt: The permeation across the lipid layer (Plip) has been calculated using Equation (3) (Di Cagno et al., 2015). The inverse of each permeability constant represents the resistance. The sum of the resistance of the lipid layer and the support layer (Psup) composing the PermeaPad® barrier gives the resistance of the whole barrier. (3) 1/Papp=1/Plip+1/Psup

[4] = pH 6.5, barrier pretreated 30 min with 50 mOsm/kg NaCl solution
[5] = pH 6.5, barrier pretreated 30 min with 300 mOsm/kg NaCl solution
[6] = PermeaPad, osmolality 50, 30 min pretreatment
[7] = PermeaPad, osmolality 150, 30 min pretreatment
[8] = PermeaPad, osmolality 300, 30 min pretreatment
[9] = PermeaPad, osmolality 450, 30 min pretreatment
[10] = PermeaPad, osmolality 900, 30 min pretreatment
[11] = pH 6.5, pretreated 30 min with 50 mOsm/kg NaCl solution
[12] = pH 6.5, pretreated 30 min with 300 mOsm/kg NaCl solution
[13] = pH 6.5, pretreatment with 50 mOsm/kg NaCl solution
[14] = pH 6.5, pretreatment with 300 mOsm/kg NaCl solution

Compound	Increase of apparent permeability across the PermeaPad® barrier upon hypo-osmotic pretreatment [1]	Papp [1, 4] [×10⁻⁶ cm/s]	Papp [1, 5] [×10⁻⁶ cm/s]	Increase of permeability in PBS across PermeaPad® [1]	Change of permeability across PermeaPad® after hyper-osmotic pretreatment (in words) [1]	Papp, mean [1, 6]	Papp, mean [1, 7]	Papp, mean [1, 8]	Papp, mean [1, 9]	Papp, mean [1, 10]	Papp [2, 11] [×10⁻⁶ cm/s]	Papp [2, 12] [×10⁻⁶ cm/s]	Papp, mean ([2]; osmolality 50)	Papp, mean ([2]; osmolality 300)	Permeation across lipid layer, fold higher with 50 mOsm/kg pretreatment [3] [fold]	Papp [3, 13] [×10⁻⁶ cm/s]	Papp [3, 14] [×10⁻⁶ cm/s]	also measured
Nc1nc2c(ncn2COCCO)c(=O)[nH]1 [Acyclovir, acyclovir]	~1.7 fold	4.07 ± 0.6	2.52 ± 0.33	1.5–2 fold	increased significantly	4.068 10-6	3.864 10-6	2.527 10-6	3.76 10-6	4.675 10-6	32.7 ± 1.87	33.2 ± 1.79	32.67 10-6	33.19 10-6	1.7	4.71 ± 0.78	2.74 ± 0.38	–
O=C(O)CN(CC(=O)O)Cc1cc2c(cc1O)Oc1cc(O)c(CN(CC(=O)O)CC(=O)O)cc1C21OC(=O)c2ccccc21 [Calcein, calcein]	approximately 2.0 fold	0.61 ± 0.04	0.35 ± 0.01	1.5–2 fold	increased significantly	0.6055 10-6	0.6047 10-6	0.3505 10-6	0.3884 10-6	0.5604 10-6	2.51 ± 0.3	2.84 ± 0.54	2.509 10-6	2.835 10-6	2.0	0.8 ± 0.07	0.4 ± 0.02	Difference in permeation across PermeaPad® between 2 and 30 min pretreatment ([1]; 50 and 300 mOsm/kg NaCl solutions, p > 0.05): no significant differences; Papp, mean ([1]; PermeaPad (2 min pretreatment), osmolality 50): 0.5524 10-6; Papp, mean ([1]; PermeaPad (2 min pretreatment), osmolality 300): 0.3418 10-6; Papp, mean ([1]; PermeaPad, osmolality 250, 30 min pretreatment): 0.3074 10-6; Papp, mean ([1]; PermeaPad, osmolality 350, 30 min pretreatment): 0.3633 10-6
Cc1ccc(-c2cc(C(F)(F)F)nn2-c2ccc(S(N)(=O)=O)cc2)cc1 [Celecoxib, celecoxib]	–	17.9 ± 7.48	15.9 ± 4.99	–	–	17.95 10-6	12.5 10-6	15.92 10-6	16.62 10-6	17.85 10-6	46.3 ± 2.23	46.2 ± 2.74	46.3348 10-6	46.16 10-6	–	34.2 ± 18.1	26.2 ± 11.2	Change of permeability across PermeaPad® with different pretreatments (in words) ([1]; NaCl pretreatment solutions from 50 to 900 mOsm/kg compared to 300 mOsm/kg): no significant changes; Change of permeation across PermeaPad® upon hypo-osmotic pretreatment (in words) ([1]; hypo-osmotic pretreatment): remained unchanged

Source: publication PMC9027509, “Modulation of Paracellular-like Drug Transport across an Artificial Biomimetic Barrier by Osmotic Stress-Induced Liposome Shrinking” (Pharmaceutics, 2022)
